Experimental data: patent US20080234280A1, “Use of Mc4 Receptor Agonist Compounds” (priority 2005, published 2008)

System: Female beagle dogs
Assay: dog urethral pressure profilometry (Test A)
Type: in vivo
Conditions: anaesthetised female beagle dog; for Mean peak urethral pressure (PUP): i.v. infusion over 15 minutes in saline; for PUP increase vs. baseline: i.v. infusion over 15 minutes, baseline (vehicle) PUP 30 mmHg
Method: Female beagle dogs (10-15 kg) are anaesthetised with sodium pentobarbitone (60 mg/mL solution) administered intravenously (IV) at 0.5 ml/kg via the right cephalic vein. Immediately following induction of anaesthesia the dog is intubated and respiration supported by artificial ventilation with oxygen. End tidal CO2 is monitored continuously, using a Datex CO2/O2 monitor and maintained between 4.5 and 4.8% and body temperature maintained between 37° C. and 38° C. An incision is made in the right medial thigh and a polyethylene catheter (6F) inserted into the right femoral vein for administration of compounds and fluid maintenance; immediately venous access is achieved a bolus IV dose of α-chloralose (1% w/v) is administered at 35 mg/kg. A polyethylene catheter (4F) is inserted into the right femoral artery for blood sampling. An incision is made in the right foreleg and the brachial vein and artery isolated, maintenance of anaesthesia is achieved with α-chloralose/borax administered IV at the rate of 10 mg/kg/h via a polyethylene catheter (6F) inserted into the right brachial vein. A laparotomy is performed from the umbilicus to the top of the pubic symphysis via the midline to expose the peritoneum in order to expose the bladder. Both ureters are cannulated towards the kidneys with polyethylene catheters (6F) and urine collected externally; the bladder is catheterised through the dome with a polyethylene catheter (6F), which is in turn connected to a pressure transducer. In order to maintain constant bladder pressure at 10-15 mmHg, urine is removed and ambient temperature saline infused into the bladder. Immediately following the completion of the surgical procedures a further bolus dose of α-chloralose/borax solution is administered IV at 35 mg/kg and the animal allowed to stabilise for a period period ca. 1 hr, during which time haemodynamic and urological parameters were monitored.
Urethral tone (peak urethral pressure (PUP), functional urethral length (FUL) and closing pressure (CP)) is assessed with the aid of an 8F Millar pressure transducer (Millar Instruments, Texas, US) inserted into the bladder through the external meatus. The urethral Millar pressure transducer is then retracted along the length of the urethra (urethral pull through) at a rate of 1 cm/min enabling the determination of PUP, FUL and CP. Urethral pull throughs are repeated every 6 min until at least 4 reproducible urethral profiles are observed. Subsequently increasing concentrations of test compound or vehicle is injected intravenously utilising either a bolus dose or constant infusion and at least a further 4 urethral pull throughs carried out at each concentration investigated. Changes in the PUP, FUL or CP are indicative of compound activity on lower urinary tract function. • Investigation of bladder capacity and external urethral sphincter (EUS) function in the spontaneously hypertensive rat:
was tested in the dog urethral pressure model (Test A) described above. The compound was dissolved in saline (vehicle) and administered by i.v. infusion over a period of 15 minutes, with at least 5 urethral pressure measurements being taken at each dose level during infusion and for 15 minutes post-infusion.

CO[C@H]1CN(C(=O)[C@@H]2CN(c3cccnn3)C[C@H]2c2ccc(F)cc2F)CC[C@]1(OC)c1ccccc1 [Example 8]
Mean peak urethral pressure (PUP) (dose 1.0 mg/kg): 32 mmHg
Mean peak urethral pressure (PUP) (dose 2.0 mg/kg): 36 mmHg
Mean peak urethral pressure (PUP) (dose 3.0 mg/kg): 35 mmHg
PUP increase vs. baseline (dose 1.0 mg/kg): 7%
PUP increase vs. baseline (dose 2.0 mg/kg): 20%
PUP increase vs. baseline (dose 3.0 mg/kg): 17%
